Results reported in article PMC7098970, “Neurosteroids as Selective Inhibitors of Glycine Receptor Activity: Structure-Activity Relationship Study on Endogenous Androstanes and Androstenes” (Frontiers in Molecular Neuroscience, 2020).
Entries after “also recorded” stand apart in the source; their conditions may differ. Like-named read-outs stand apart in the source and are kept apart here.

Tests used:
glycine receptor (GlyR) = assay: Glycine-induced chloride current (IGly), whole-cell patch-clamp in isolated pyramidal neurons of the rat hippocampus; type: cell-based; conditions: for τdes/τdes control of IGly: 0.1 μM of steroid; for τdes/τdes control of IGly / Ipeak/Ipeak control of IGly: mean ± SEM, normalized; for Ipeak/Ipeak control of IGly: 10 μM of steroid; for Ipeak max (maximum inhibition attainable) of IGly / Ipeak Hill coefficient of IGly: peak amplitude
Method: (§1) All experiments were conducted per the requirements of the Ministry of Public Health of the Russian Federation and were consistent with the EU directive for Use of Experimental Animals of the European Community. […] The cells were isolated from transverse hippocampal slices as described in detail elsewhere ([Vorobjev, 1991]). Briefly, the slices (200–500 μm) of Wistar rats (11–14 days of age) hippocampus or cerebellum were incubated at room temperature for at least 2 h in a solution containing the following components (in mM): 124 NaCl, 3 KCl, 2 CaCl2, 2 MgSO4, 25 NaHCO3, 1.3 NaH2PO4, 10 D-glucose, pH 7.4. The saline was continuously stirred and bubbled with carbogen (95% 0_2 + 5% CO2). Single pyramidal neurons from the hippocampal CA3 area or Purkinje cells from sagittal slices of the cerebellum were isolated by a vibrating fused glass pipette with a spherical tip.
(§2) Isolated neurons were patch clamped and then lifted into the outflow of the control bath solution. […] The substances were applied through glass capillary, 0.1 mm in diameter, which could be rapidly displaced laterally ([Vorobjev et al., 1996]). A fast perfusion technique allows a complete exchange of external solution surrounding a neuron within 20 ms. […] Transmembrane currents were recorded using a conventional patch-clamp technique in the whole-cell configuration. […] The solution in the recording pipette contained the following (in mM): 40 CsF, 100 CsCl, 0.5 CaCl2, 5 EGTA, 3 MgCl2, 4 NaATP, 5 HEPES, pH 7.3. The composition of the extracellular solution was as follows (in mM): 140 NaCl, 3 KCl, 3 CaCl2, 3 MgCl2, 10 D-glucose, 10 HEPES hemisodium, and pH 7.4. Recording of the currents was performed using EPC7 patch-clamp amplifier (HEKA Electronik, Germany). The holding potential was maintained at −70 mV. Transmembrane currents were filtered at 3 kHz, stored and analyzed with IBM-PC computer, using homemade software.
(§3) Statistical analysis was performed with the help of Prism Graphpad software. All comparisons were made with ANOVA-test using Dunnett’s multiple comparison test and Student’s unpaired t-test at a significance level of p = 0.05. N = 5–8 cells from 3 to 4 animals for every concentration. […] The meanings of asterisks (probability levels) in figures is the following: ^∗P < 0.05, ^∗∗P < 0.01. The IC50 values for steroids inhibition of the IGly and IGABA were determined using the equation: Y = 1 – [max/(1 + (IC50/C)^n)], where max is the maximum inhibition attainable, C is the concentration of steroid, IC50 is the half-maximal inhibitory concentration and n is the slope factor (Hill coefficient).
(§4) First, the ability of steroids to affect the holding current at voltage-clamp regime was tested. […] The experiments with IGly were conducted on rat hippocampal neurons, and experiments with IGABA were conducted on rat cerebellar Purkinje cells.

GABAA receptors = target: T1, GABAA receptors (Rattus norvegicus, UniProt P18508+P62813+P63138); type: cell-based
T1 construct: Single pyramidal neurons from the hippocampal CA3 area or Purkinje cells from sagittal slices of the cerebellum were isolated; endogenous in cells; host or cells: acutely isolated Purkinje cells from cerebellar slices of Wistar rats, 11-14 days old
Method: as §1, §2, §3, §4

[1] = Hill fit, time constant of desensitization, 100 μM glycine
[2] = read-out: Ipeak IC50 of IGly, inhibition of peak amplitude, 100 μM glycine
[3] = read-out: τdes IC50 of IGly, acceleration of desensitization (decrease in τdes), 100 μM glycine
[4] = time constant of desensitization, 100 μM glycine
[5] = footnote b: did not modulate IGABA up to the concentration of 10 μM, 5 μM GABA

T1 sequence (P62813 28-455): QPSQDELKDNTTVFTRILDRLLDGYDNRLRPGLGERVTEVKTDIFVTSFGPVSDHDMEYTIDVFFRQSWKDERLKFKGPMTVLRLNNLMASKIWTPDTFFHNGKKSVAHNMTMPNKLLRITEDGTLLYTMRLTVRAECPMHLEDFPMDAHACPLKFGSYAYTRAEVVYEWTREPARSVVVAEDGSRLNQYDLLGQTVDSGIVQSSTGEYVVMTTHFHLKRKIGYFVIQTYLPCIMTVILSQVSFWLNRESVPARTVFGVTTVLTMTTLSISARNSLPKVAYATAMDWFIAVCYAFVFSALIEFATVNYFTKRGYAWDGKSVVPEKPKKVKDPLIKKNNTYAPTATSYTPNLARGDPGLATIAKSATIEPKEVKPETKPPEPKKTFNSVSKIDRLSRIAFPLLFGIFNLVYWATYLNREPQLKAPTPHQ
T1 sequence (P63138 25-474 limits assumed): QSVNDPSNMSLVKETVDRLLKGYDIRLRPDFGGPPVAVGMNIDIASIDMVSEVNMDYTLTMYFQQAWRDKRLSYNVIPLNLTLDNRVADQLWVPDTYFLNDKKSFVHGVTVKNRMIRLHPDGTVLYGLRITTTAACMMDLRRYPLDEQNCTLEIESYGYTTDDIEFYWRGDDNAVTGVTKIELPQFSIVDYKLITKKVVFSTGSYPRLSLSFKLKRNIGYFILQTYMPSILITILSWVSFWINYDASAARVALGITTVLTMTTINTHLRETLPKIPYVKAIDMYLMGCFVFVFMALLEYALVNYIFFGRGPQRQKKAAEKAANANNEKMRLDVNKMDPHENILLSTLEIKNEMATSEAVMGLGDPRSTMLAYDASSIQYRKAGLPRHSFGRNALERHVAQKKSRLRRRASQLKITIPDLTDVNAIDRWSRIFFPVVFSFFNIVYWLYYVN
T1 sequence (P18508 39-466): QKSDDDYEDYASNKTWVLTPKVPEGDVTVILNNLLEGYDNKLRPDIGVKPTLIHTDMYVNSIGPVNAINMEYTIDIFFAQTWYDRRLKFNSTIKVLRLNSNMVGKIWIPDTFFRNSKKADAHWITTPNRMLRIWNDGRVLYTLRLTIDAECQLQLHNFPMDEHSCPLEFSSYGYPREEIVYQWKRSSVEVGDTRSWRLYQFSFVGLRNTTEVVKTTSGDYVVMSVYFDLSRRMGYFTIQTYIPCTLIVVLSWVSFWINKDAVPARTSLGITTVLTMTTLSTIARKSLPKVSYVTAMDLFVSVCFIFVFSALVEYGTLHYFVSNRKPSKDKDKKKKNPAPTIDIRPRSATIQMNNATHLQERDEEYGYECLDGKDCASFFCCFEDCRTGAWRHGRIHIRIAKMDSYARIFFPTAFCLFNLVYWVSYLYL

SMILES	τdes/τdes control of IGly (glycine receptor (GlyR); 100 μM glycine)	τdes IGly (effect on time constant of desensitization) (glycine receptor (GlyR); 10 μM compound, 100 μM glycine) [%]	Ipeak/Ipeak control of IGly (glycine receptor (GlyR); 100 μM glycine)	Ipeak max (maximum inhibition attainable) of IGly (glycine receptor (GlyR); Hill fit, 100 μM glycine)	τdes max (maximum inhibition attainable) of IGly (glycine receptor (GlyR); [1])	Ipeak Hill coefficient of IGly (glycine receptor (GlyR); 100 μM glycine)	IC50 (glycine receptor (GlyR); [2]) [µM]	IC50 (glycine receptor (GlyR); [3]) [µM]	τdes Hill coefficient of IGly (glycine receptor (GlyR); [4])	τdes/τdes control of IGABA (GABAA receptors; 10 μM of steroid, 5 μM GABA)	Ipeak/Ipeak control of IGABA (GABAA receptors; 50 μM of steroid, 5 μM GABA)	τdes Hill coefficient of IGly (glycine receptor (GlyR))	τdes IGly (effect on time constant of desensitization) (glycine receptor (GlyR)) [%]	τdes max (maximum inhibition attainable) of IGly (glycine receptor (GlyR))	IC50 (glycine receptor (GlyR); read-out: τdes IC50 of IGly) [µM]	Ipeak/Ipeak control of IGABA (GABAA receptors)	τdes IGABA (effect in words) (GABAA receptors)	τdes/τdes control of IGABA (GABAA receptors)	also measured
C[C@]12CC[C@H]3[C@@H](CCC4=CC(=O)CC[C@@]43C)[C@@H]1CC[C@@H]2O [Compound 1, 17β-Hydroxyandrost-4-en-3-one]	0.68 ± 0.05	−67	0.75 ± 0.03	0.58 ± 0.10	0.72 ± 0.08	1.1 ± 0.32	19.3 ± 2.3	0.13 ± 0.06	0.58 ± 0.20	0.99 ± 0.02	0.86 ± 0.03								Effect on IGly in words (glycine receptor (GlyR); 0.1 and 1 μM compound): accelerated desensitization without effect on the peak amplitude; Effect on IGly in words (glycine receptor (GlyR); 10 and 100 μM compound): acceleration of desensitization and a decrease in peak amplitude; Acceleration of decay (desensitization) of IGABA (GABAA receptors; 50 μM compound, 5 μM GABA): 23–45%; Decrease in the peak amplitude of IGABA (GABAA receptors; 50 μM compound, 5 μM GABA): 14–25%; τdes IGABA (effect in words) (GABAA receptors; [5]): ^bNo effect
C[C@]12CCC(=O)C=C1CC[C@@H]1[C@@H]2CC[C@]2(C)C(=O)CC[C@@H]12 [Compound 2, Androst-4-en-3,17-dione]	0.73 ± 0.06	−84	0.82 ± 0.02	0.55 ± 0.09	0.97 ± 0.10	1.1 ± 0.36	18.1 ± 2.9	0.49 ± 0.16	0.60 ± 0.11	0.98 ± 0.02	0.77 ± 0.02								Acceleration of decay (desensitization) of IGABA (GABAA receptors; 50 μM compound, 5 μM GABA): 23–45%; Decrease in the peak amplitude of IGABA (GABAA receptors; 50 μM compound, 5 μM GABA): 14–25%; τdes IGABA (effect in words) (GABAA receptors; [5]): ^bNo effect
C[C@]12CCC(=O)C[C@@H]1CC[C@@H]1[C@@H]2CC[C@]2(C)[C@@H](O)CC[C@@H]12 [Compound 3, 17β-Hydroxy-5α-androstan-3-one]	0.72 ± 0.06		0.78 ± 0.03	0.61 ± 0.08		0.86 ± 0.15	20.1 ± 2.8					0.58 ± 0.13	−82	0.97 ± 0.11	0.42 ± 0.14	0.95 ± 0.03	^cNo effect	0.98 ± 0.02	Modulation of IGABA (peak amplitude or rate of decay/desensitization) (GABAA receptors): did not modulate; also recorded: remained inactive; also recorded: did not change
C[C@]12CC[C@H](O)C[C@@H]1CC[C@@H]1[C@@H]2CC[C@]2(C)C(=O)CC[C@@H]12 [Compound 4, 3β-Hydroxy-5α-androstan-17-one]	0.66 ± 0.05		0.75 ± 0.03	0.64 ± 0.08		0.97 ± 0.21	17.1 ± 2.3					0.59 ± 0.16	−64	0.70 ± 0.07	0.12 ± 0.05	0.75 ± 0.03		0.80 ± 0.03	Acceleration of decay (desensitization) of IGABA (GABAA receptors): 23–45%; Decrease in the peak amplitude of IGABA (GABAA receptors): 14–25%; τdes IGABA (effect on time constant of desensitization) (GABAA receptors): −20%
C[C@]12CC[C@H]3[C@@H](CCC4=CC(=O)CC[C@@]43C)[C@@H]1CC[C@H]2O [Compound 5, 17α-Hydroxyandrost-4-en-3-one]	0.66 ± 0.04	−72	0.80 ± 0.04	0.46 ± 0.09	0.81 ± 0.11	1.2 ± 0.34	17 ± 2.9	0.22 ± 0.08	0.51 ± 0.15	0.97 ± 0.03	1.12 ± 0.08								τdes IGABA (effect in words) (GABAA receptors; footnote c: did not modulate IGABA up to the concentration of 50 μM, 5 μM GABA): ^cNo effect; Modulation of IGABA (peak amplitude or rate of decay/desensitization) (GABAA receptors; up to 50 μM compound, 5 μM GABA): did not modulate; also recorded: remained inactive; also recorded: did not change
C[C@]12CCC(=O)C[C@@H]1CC[C@@H]1[C@@H]2CC[C@]2(C)C(=O)CC[C@@H]12 [Compound 6, 5α-Androstane-3,17-dione]	0.65 ± 0.03	−72	0.76 ± 0.03	0.51 ± 0.05	0.86 ± 0.10	1.2 ± 0.35	16.3 ± 2.4	0.26 ± 0.09	0.48 ± 0.10							0.92 ± 0.04	^cNo effect	0.99 ± 0.02	Modulation of IGABA (peak amplitude or rate of decay/desensitization) (GABAA receptors): did not modulate; also recorded: remained inactive; also recorded: did not change
C[C@]12CC[C@H]3[C@@H](CC=C4C[C@@H](O)CC[C@@]43C)[C@@H]1CC[C@@H]2O [Compound 7, 3β,17β-Androst-5-ene-3,17-diol]	0.72 ± 0.03		0.75 ± 0.02	0.52 ± 0.09		0.71 ± 0.16	16.2 ± 2.3					0.56 ± 0.13	−70	0.81 ± 0.09	0.29 ± 0.12	0.77 ± 0.06	^bNo effect	0.98 ± 0.02	Acceleration of decay (desensitization) of IGABA (GABAA receptors): 23–45%; Decrease in the peak amplitude of IGABA (GABAA receptors): 14–25%
CN1CCc2cc3c(cc2[C@H]1[C@@H]1OC(=O)c2c1ccc1c2OCO1)OCO3 [bicuculline, reference compound]																			Block of IGABA (GABAA receptors): reversibly blocked
